Source: patent US20100130598A1, “METHODS FOR INDUCING PROGRAMMED CELL DEATH” (Novogen Research Pty Ltd., priority 2008, published 2010)

Legend:
Format in all cases: cell-based, human
[1] = test system: phosphorylated mTOR (p-mTOR); test: Western blot of EOC whole cell lysates for phospho-mTOR; conditions: EOC cells, 10 g/ml (as printed, FIG. 3 legend), 15 mins post-treatment
Source text: (§1) Protein preparation and cellular fractionation. After drug treatment, protein was extracted and measured as previously described (Alvero et al, 2006). For separation of the cytoplasmic and mitochondrial fractions, cell pellets were processed using the ApoAlert™ Cell Fractionation Kit (BD Biosciences, San Jose, Calif.) according to the manufacturer's instructions. For separation of the cytoplasmic and nuclear fractions, pellets were processed using NE-PER Nuclear and Cytoplasmic Extraction (Pierce Biotechnology, Inc., Rockford, Ill.).
(§2) SDS-PAGE and Western blots. Cell lysates (20 μg protein) were denatured in sample buffer (2.5% SDS, 10% glycerol, 5% β-mercapto-ethanol, 0.15 M Tris (pH=6.8) and 0.01% bromophenol blue) and subjected to 12% SDS-PAGE as previously described (Kamsteeg et al, 2003). […]

[2] = test system: Beclin-1 / Bcl2; test: Beclin-1 immunoprecipitation from mitochondrial fraction, probed for Bcl2 and Bak; conditions: 10 μg/ml, 1 h
Procedure: SDS-PAGE and Western blots. Cell lysates (20 μg protein) were denatured in sample buffer (2.5% SDS, 10% glycerol, 5% β-mercapto-ethanol, 0.15 M Tris (pH=6.8) and 0.01% bromophenol blue) and subjected to 12% SDS-PAGE as previously described (Kamsteeg et al, 2003). The following antibodies and concentrations were used: mouse anti-XIAP (BD, 1:1,000), rabbit anti-MAP LC3 (1:200), rabbit anti-actin (Sigma, 1:10,000), rabbit anti-phosphorylated Akt (Cell Signaling, 1:1,000), rabbit anti-Akt (Cell Signaling, 1:1000), rabbit anti-phosphorylated mTOR (Cell Signaling, 1:1000), rabbit anti-mTOR (Cell Signaling, 1:1000), rabbit anti-cytochrome c (Clontech Laboratories, Inc, Mountainview, Calif., 1:100), rabbit anti-Omi (R&D Systems, Minneapolis, Minn., 1:5000), rabbit anti-Bid (Cell Signaling, 1:1000), mouse anti-Bax (BD Pharmingen, 1:250), rabbit anti-VDAC (Sigma Aldrich, 1:2000), mouse anti-Bcl2 (BD Pharmingen, 1:500), rabbit anti-AIF (Sigma Aldrich, 1:1000), rabbit anti-EndoG (Sigma Aldrich, 1:1000), mouse anti-topoisomerase I (BD Pharmingen, 1:10,000). Proteins were visualized using enhanced chemiluminescence (Pierce, Rockford Ill.).
Immunoprecipitation. […]

[3] = test system: phosphorylated Akt (p-Akt); test: Western blot of EOC whole cell lysates for phospho-Akt; conditions: EOC cells, 10 g/ml (as printed, FIG. 2 legend), as early as 15 mins post-treatment
Source text: as §1, §2

[4] = test system: LC3-II; test: Western blot of EOC whole cell lysates for LC3-II; conditions: EOC cells, 10 g/ml (as printed, FIG. 3 legend)
Source text: as §1, §2

[5] = test system: 8 phospho-proteins; test: Analysis of phospho-proteins using xMAP technology (Beadlyte 8-plex); conditions: EOC cells, 10 μg/ml
Source text: Analysis of phoshpo-proteins using xMAP technology. After treatment, cells were lysed and lysates were used to measure the phosphorylation status of 8 proteins using the Beadlyte® 8-plex Multi-Pathway Signaling kit (Millipore, Billerica, Mass.) according to manufacturer's instructions. Data was acquired using the BioPlex System (BioRad, Hercules, Calif.).

[6] = test system: ribosomal p70 S6 kinase (p-S6k); test: Western blot of EOC whole cell lysates for p-S6k; conditions: EOC cells, 10 g/ml (as printed, FIG. 3 legend), 15 mins post-treatment
Source text: as §1, §2

[7] = test system: MIAPaCa-2 cells; test: Apoptosis/necrosis by FACS (Annexin-V-FITC/PI), MIAPaCa-2
Procedure: (§3) Cells. Human pancreatic cell lines HPAC, MIAPaCa-2 and PANC-1 were obtained from the ATCC. (Manassas, Va.). The cells were maintained in DMEM media with Gln and high glucose (Mediatech, Manassas, Va.) with 10% fetal bovine serum (FBS, HyClone, Logan, Utah) and pencillin/streptomycin.
(§4) FACS Analysis. Apoptosis was measured by FACS analysis using Annexin-V-FITC and propidium iodide (PI) (Biovision, Mountain View, Calif.) as probes (Ahn et al., 2003). Mitochondrial membrane potential was measured by FACS analysis using JC-1 (Biovision) as a probe (Ahn et al., 2003). Cell cycle was analyzed on ethanol-fixed, RNaseA-treated cells staining with PI. In each spectrum, 10,000 gated events were recorded and analyzed with a FACSCalibur (BD Biosciences. San Jose, Calif.). All experiments were done in triplicate, error bars represent one standard deviation. Caspase inhibitor I (zVAD-fmk) was obtained from Calbiochem.

[8] = test system: PANC-1 cells; test: Apoptosis/necrosis by FACS (Annexin-V-FITC/PI), PANC-1; conditions: PANC-1, dose-escalating, 48 hr exposure
Procedure: as §3, §4

[9] = test system: Caspase 2, 3 and 9 in PANC-1 cells; test: In situ caspase activity by flow cytometry, PANC-1; conditions: PANC-1, 10 μM, after 48 hrs
Procedure: as §3
Caspase Activity After 48 h treatment with 10 μM Compound 10, HPAC, MIAPaCa-2 and PANC-1 cells were harvested by trypsinization and resuspended in DMEM media with 10% FBS. The cells were incubated with caspase substrates for 1 h at 37° C., 5% CO2, then probed with Annexin-V-Cy5 and sytox blue. Caspase +ve cells were gated as shown in the histograms and these cells are indicated on the Annexin-V-Cy5/sytox blue spectra as blue cells. In situ caspase activity was assayed using fluorescent substrates. For Caspase 2, FITC-VDVAD-fmk (Biovision K182-100), for Caspase 3, FITC-DEVD-fmk (K183-100) and for Caspase 9, FITC-LEHD-fmk (K199-100) was used. These substrates bind irreversibly to their respective activated caspases, and caspase activation was quantitated by flow cytometry. […] Caspase activation, apoptosis and necrosis were measured simultaneously using a violet, blue and red laser in a BD LSRII flow cytometer.

[10] = MIAPaCa-2, dose-escalating, 48 hr exposure

SMILES | p-mTOR level [1] | Bak in complex with Beclin-1 [2] | Bcl2 in complex with Beclin-1 ([2]; vs no treatment control) | p-Akt level [3] | levels of LC3-II [4] | ERK, pJNK, pSTAT5a/b, and pCREB (xMAP phospho-protein panel) [5] | p-S6k (xMAP phospho-protein panel) [5] | pIκB, pSTAT3, and p38 (xMAP phospho-protein panel) [5] | p-S6k level [6] | effect of zVAD-fmk pre-treatment on induced necrosis ([7]; MIAPaCa-2, 10 μM zVAD-fmk 1 h before 10 μM Compound 10) | effect of zVAD-fmk pre-treatment on induced apoptosis ([7]; MIAPaCa-2, 10 μM zVAD-fmk 1 h pre-treatment, 10 μM Compound 10 or 50 ng/mL TRAIL) | apoptosis [7, 10] | necrosis [7, 10] | apoptosis [8] | necrosis [8] | caspase 2, 3 and 9 activation [9]
COc1ccc(C2c3ccc(O)c(C)c3OCC2c2ccc(O)cc2)cc1 (stereo not shown) [Compound 1, 3-(4-hydroxyphenyl)-4-(4-methoxyphenyl)-8-methylchroman-7-ol] | down-regulated | not observed | Higher levels | strong down-regulation | significant increase | Up-regulation | down-regulates | minimal or no effect | down-regulated |  |  |  |  |  |  | 
COc1ccc(C2c3ccc(O)cc3OCC2c2ccc(O)cc2)cc1 (stereo not shown) [Compound 10, 3-(4-hydroxyphenyl)-4-(4-methoxyphenyl)chroman-7-ol] |  |  |  |  |  |  |  |  |  | inhibited | apparently enhanced | induced apoptosis in a dose-dependent fashion | Very little necrosis | induced apoptosis in a dose-dependent fashion | Very little necrosis | activated
